Structures can show the parent of a compound that is named as a salt.
Target: Steroidogenic factor 1 (Homo sapiens, UniProt Q13285)
Test: SF-1 inhibitor potency, dose response, cell-based, CHO-K1, Gal4-SF-1 LBD, luciferase luminescence (AID 600)
[1] = inactive by the depositor's call

Chain of Steroidogenic factor 1 (Q13285 whole entry, the tested form may be a part): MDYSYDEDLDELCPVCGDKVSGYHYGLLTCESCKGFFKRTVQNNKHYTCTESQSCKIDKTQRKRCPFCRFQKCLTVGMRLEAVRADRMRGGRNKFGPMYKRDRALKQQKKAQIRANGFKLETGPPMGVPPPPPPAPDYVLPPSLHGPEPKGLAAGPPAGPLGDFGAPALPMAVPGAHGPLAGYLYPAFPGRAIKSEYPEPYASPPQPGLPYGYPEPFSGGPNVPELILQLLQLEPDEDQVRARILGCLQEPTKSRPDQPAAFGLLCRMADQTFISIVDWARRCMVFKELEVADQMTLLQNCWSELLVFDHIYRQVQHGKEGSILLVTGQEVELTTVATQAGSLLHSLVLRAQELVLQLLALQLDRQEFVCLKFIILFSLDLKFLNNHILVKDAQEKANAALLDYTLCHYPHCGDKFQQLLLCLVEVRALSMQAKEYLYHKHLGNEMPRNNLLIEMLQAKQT

Row | SMILES | IC50 [µM] | IC50 [1] [µM]
1 | CC(C)c1ccc2oc(-c3cc(N)ccc3O)nc2c1 [(6E)-4-amino-6-(5-isopropyl-3H-1,3-benzoxazol-2-ylidene)cyclohexa-2,4-dien-1-one] | 10.6 | 
2 | CCc1ccc2oc(-c3cc(N=Cc4cccc(OC)c4O)ccc3O)nc2c1 [(6E)-6-[[[(3E)-3-(5-ethyl-3H-1,3-benzoxazol-2-ylidene)-4-keto-cyclohexa-1,5-dien-1-yl]amino]methylene]-2-methoxy-cyclohexa-2,4-dien-1-one] | 5.66 | 
3 | COc1cccc2c1C(=O)c1c(O)c3c(c(O)c1C2=O)C[C@@](O)(C(C)=O)C[C@@H]3O[C@H]1C[C@H](N)[C@H](O)[C@H](C)O1 [(7S,9S)-9-acetyl-7-[(2R,4S,5S,6S)-4-amino-5-hydroxy-6-methyloxan-2-yl]oxy-6,9,11-trihydroxy-4-methoxy-8,10-dihydro-7H-tetracene-5,12-dione;hydrochloride] | 0.54 | 
4 | C[C@H]1CCCC=CC2C[C@H](O)CC2[C@H](O)C=CC(=O)O1 (stereo partly drawn) [(7S,12R,15S)-12,15-dihydroxy-7-methyl-8-oxabicyclo[11.3.0]hexadeca-2,10-dien-9-one] | 5.61 | 
5 | N#CC1C(=N)C(C#N)(C#N)[C@H](c2ccncc2)[C@H]2CN(C(=O)OCc3ccccc3)CC=C12 (stereo partly drawn) [(8S,8aR)-6-amino-5,7,7-tricyano-8-(4-pyridyl)-1,3,8,8a-tetrahydroisoquinoline-2-carboxylic acid benzyl ester] | 14.7 | 
6 | CCn1c2ccccc2c2cc(Nc3cc(C)nc4ncnn34)ccc21 [(9-ethylcarbazol-3-yl)-(5-methyl-[1,2,4]triazolo[1,5-a]pyrimidin-7-yl)amine] | 6.19 | 
7 | Cc1ccc(C(=O)CC=Nc2ccccn2)cc1 [(E)-1-(4-methylphenyl)-3-(2-pyridinylamino)-2-propen-1-one] | > 11 | 
8 | CN(C)c1ccc(N=CCC(=O)c2ccccc2)cc1 [(E)-3-[4-(dimethylamino)anilino]-1-phenyl-2-propen-1-one] | > 11 | 
9 | O=C(CC=Nc1ccccn1)c1ccc(Cl)cc1 [(Z)-1-(4-chlorophenyl)-3-(2-pyridinylamino)-2-propen-1-one] | 6.09 | 
10 | O=S(=O)(C/C(=C/CO)S(=O)(=O)c1ccccc1)c1ccccc1 [(Z)-3,4-bis(benzenesulfonyl)but-2-en-1-ol] |  | 18
11 | O=C(CC=Nc1ccc2c(c1)OCO2)c1ccccn1 [(Z)-3-(1,3-benzodioxol-5-ylamino)-1-(2-pyridinyl)-2-propen-1-one] | 13.6 | 
12 | CCOC(=O)c1[n-]c2ccccc2c1[N+]#N [(Z)-(3-diazonio-2-indolylidene)-ethoxymethanolate] | 11.3 | 
13 | CC[C@]1(O)CC2C[N@](CCc3c([nH]c4ccccc34)[C@@](C(=O)OC)(c3cc4c(cc3OC)N(C)[C@H]3[C@@](O)(C(=O)OC)[C@H](OC(C)=O)[C@]5(CC)C=CCN6CC[C@]43[C@@H]65)C2)C1 [(vinblastine) methyl 12-ethyl-4-[17-ethyl-17-hydroxy-13-methyloxycarbonyl-(13S,15R,17S)-1,11-diazatetracyclo[13.3.1.04,12.05,10]nonadeca-4(12),5,7,9-tetraen-13-yl]-10-hydroxy-5-methoxy-8-methyl-11-methylcarbonyloxy-(10S,11R,12R)-8,16-diazapentac sulfuric acid] | 0.986 | 
14 | COc1cccc2c1C(=O)c1c(O)c3c(c(O)c1C2=O)C[C@@](O)(C(=O)CO)C[C@@H]3O[C@H]1C[C@H](N)[C@H](O)[C@H](C)O1 [MLS000028393] | 0.964 | 
15 | CCOc1cc(C(=O)CSc2nnc(CNc3ccc(Cl)cc3)o2)ccc1NC(=O)CC [MLS000032332] | 8.36 | 
16 | Nc1ccc(-c2nc3c(Cl)cc(N)cc3[nH]2)cc1 [MLS000034140] | 5.09 | 
17 | Cc1cnc(NC(=O)CN2CCN(c3ccccn3)CC2)s1 [MLS000035284] | 8.52 | 
18 | Cc1cccc(NC(=O)CSc2nnc(-c3cc(C)n(-c4ccccc4)c3C)o2)c1C [MLS000036049] | > 1.22 | 
19 | CC(=O)c1sc(NC(=O)C2(F)C(F)(F)C(F)(F)C(F)(F)C(F)(F)C2(F)F)nc1C [MLS000040071] |  | 15.6
20 | COc1ccc(CCNc2nc(C)nc3c2oc2ccccc23)cc1OC [MLS000040997] |  | 10.1
21 | COc1ccc(CCNc2ncnc3c2oc2ccccc23)cc1OC [MLS000041708] | 9.38 | 
22 | COc1ccc(C=Nn2nnc3ccccc32)cc1 [MLS000043825] | > 3.67 | 
23 | CS(=O)(=O)c1nc(-c2ccccc2)cc(C(F)(F)F)n1 [MLS000044644] | 5.09 | 
24 | CS(=O)(=O)c1nc(-c2cccs2)cc(C(F)(F)F)n1 [MLS000044645] | 5.46 | 
25 | CCOc1ccc(-c2cc(CCCC(=O)Nc3cc(OC)ccc3OC)no2)cc1 [MLS000045930] |  | 12.7
26 | Cc1ccc(NC(=O)Cc2nn(C)c(=O)c3ccccc23)cc1F [MLS000047015] |  | 11.4

Row | SMILES | IC50 [µM] | IC50 [1] [µM]
27 | Cn1nc(CC(=O)Nc2ccc3c(c2)OCCO3)c2ccccc2c1=O [MLS000047020] |  | 12.8
28 | CCOc1ccccc1-n1c(SCC(=O)Nc2ccc(CC)cc2)nc2nnc(C)c-2c1N [MLS000047091] | 5.99 | 
29 | CCn1c2ccccc2c2cc(NC(=O)CSc3nnnn3-c3ccccc3)ccc21 [MLS000051054] | 6.92 | 
30 | COc1cc2nc(CN3CC=C(c4ccccc4)CC3)nc(O)c2cc1OC [MLS000053305] | 1.3 | 
31 | COc1ccccc1OCC(=O)c1[nH]c(C)c(C(C)=O)c1C [MLS000053479] |  | 32.9
32 | CCOC(=O)c1c(C)[nH]c(C(=O)C(C)OC(=O)c2cccc(OCc3c(C)noc3C)c2)c1C (stereo unspecified) [MLS000054923] | 8.24 | 
33 | O=C(NC1=NCCS1)C1COc2ccccc2O1 (stereo unspecified) [MLS000056062] | 5.24 | 
34 | CC(=O)Nc1ccccc1OCC(=O)c1cc(C)n(Cc2cccs2)c1C [MLS000056239] | 2.78 | 
35 | COc1ccc(CCNc2nnc(Sc3nnnn3-c3ccccc3)s2)cc1OC [MLS000056567] | 5.15 | 
36 | CCSc1nnc(NC(=O)c2ccccn2)s1 [MLS000056851] | > 3.67 | 
37 | O=S(=O)(Nc1cccc2ncccc12)c1cccs1 [MLS000057468] | 5.27 | 
38 | CC(=O)Nc1ccc(SCC(=O)c2cc(C)n(Cc3cccs3)c2C)cc1 [MLS000058142] | 4 | 
39 | Cc1cc(C)n(-c2ccc3cccc(NS(C)(=O)=O)c3n2)n1 [MLS000062301] | 3.42 | 
40 | c1cncc(-c2nnc(SCc3nc4ccccc4[nH]3)o2)c1 [MLS000062679] | > 99 | 
41 | O=C(Nc1ccc(N2CCOCC2)cc1)c1cnsn1 [MLS000063695] | 4.09 | 
42 | CC1CCc2nc(NC(=O)c3ccco3)sc2C1 (stereo unspecified) [MLS000063711] | > 11 | 
43 | Cc1cc(NC(=O)c2ccc3c(c2)OCCO3)no1 [MLS000064124] |  | 13.1
44 | N#C/C(=C\c1ccc(O)c(O)c1)C(=O)NCCCc1ccccc1 [MLS000069704] |  | 13.5
45 | CCN(C(=O)c1ccc(C(C)(C)C)cc1)c1nnc(Cn2nnc3ccccc32)s1 [MLS000072751] |  | 10.4
46 | Cc1ccnc(SCC(=O)Nc2sc3c(c2C#N)CCCC3)n1 [MLS000077260] |  | 13.4
47 | COc1cc(C2Nc3cccc4cccc(c34)N2)cc(OC)c1OC(C)=O [MLS000078084] | 7.72 | 
48 | c1ccc(CN2CCN(c3ncnc4c3[nH]c3ccccc34)CC2)cc1 [MLS000078384] |  | 15.6
49 | Fc1ccc2[nH]c3c(N4CCSCC4)ncnc3c2c1 [MLS000078401] |  | 11.8
50 | COc1ccc(OC)c(NS(=O)(=O)c2ccc(N3CCCC3=O)cc2)c1 [MLS000079343] |  | 36
51 | COc1cc2c(cc1NC(=O)CSc1nnnn1-c1ccccc1)oc1ccccc12 [MLS000082182] | 6.02 | 
52 | CCOc1cc(C(=O)N2CCc3cc(OC)c(OC)cc3C2)ccc1OC(F)F [MLS000083614] |  | 12.9

Row | SMILES | IC50 [µM] | IC50 [1] [µM]
53 | Cc1nc(N2CCN(c3ccccc3)CC2)nc(O)c1Cc1cccc2ccccc12 [MLS000084491] | > 3.67 | 
54 | O=C(CSc1nnnn1-c1ccccc1)Nc1nsc(-c2ccc(Cl)cc2)n1 [MLS000085595] | 4.9 | 
55 | Cc1cc(NC(=O)CCCS(=O)(=O)c2nc(-c3cccs3)cc(C(F)(F)F)n2)no1 [MLS000086269] | 8.2 | 
56 | CC1(C)COCN1S(=O)(=O)c1ccc(C(=O)Nc2nnc(-c3ccc(Cl)s3)o2)cc1 [MLS000086346] | 7.61 | 
57 | COc1ccc(-c2nc(CSCC(=O)NCc3ccco3)c(C)o2)cc1 [MLS000089353] | 5.87 | 
58 | COCCNC(=O)CSCc1nc(-c2ccc(SC)cc2)oc1C [MLS000089367] | 0.595 | 
59 | CN(C)c1ccc(-c2nc3ccccc3n2C)cc1 [MLS000089904] | > 3.67 | 
60 | O=C(NCc1ccco1)c1ccc2nc3sc4c(c3c(=O)n2c1)CCCC4 [MLS000091875] | > 3.67 | 
61 | O=C(NCCCN1CCOCC1)c1csc2c1CCCC2 [MLS000093382] | > 99 | 
62 | O=S(=O)(NCc1cn2ccsc2n1)c1ccc(Oc2ccccc2)cc1 [MLS000094195] |  | 34.5
63 | O=c1cc(N2CCN(c3cccc(Cl)c3)CC2)[nH]c(=O)n1C1CCCCC1 [MLS000094380] | 0.315 | 
64 | O=c1cc(N2CCN(c3ccccc3)CC2)[nH]c(=O)n1C1CCCCC1 [MLS000094382] | 2.99 | 
65 | CCCC(=O)N1CCN(c2ccc(NC(=O)c3cc4ccccc4o3)cc2Cl)CC1 [MLS000096729] | 8.79 | 
66 | COc1ccc(C(=O)Nn2c(SCC(=O)NCc3ccco3)nc3ccccc3c2=O)cc1 [MLS000097349] | 5.75 | 
67 | O=C(Nc1nc(-c2ccc(Cl)s2)cs1)c1ccncc1 [MLS000098514] | > 99 | 
68 | O=C(NCCOc1ccccc1)c1ccc2c(c1)OCO2 [MLS000100028] | > 1.22 | 
69 | O=C(Nc1ccccc1)c1cccc(-c2nnc(-c3ccccc3)o2)c1 [MLS000100081] | 4.2 | 
70 | COc1ccc(-n2ncc3c(N(C)C4CCCCC4)ncnc32)cc1 [MLS000100813] | 0.292 | 
71 | Cc1cccc(-n2ncc3c(N(C)C4CCCCC4)ncnc32)c1 [MLS000100814] | > 3.67 | 
72 | O=C(Nc1nc2cc3c(cc2s1)OCO3)C1=COCCO1 [MLS000103798] | 3.7 | 
73 | COc1ccc(C(NC(C)=O)c2ccc3cccnc3c2O)c(OC)c1 (stereo unspecified) [MLS000109349] | > 3.67 | 
74 | CN(C)c1ccc(NC(=S)c2ccccn2)cc1 [MLS000111989] | 2.41 | 
75 | Cc1cc(C=Nn2cnnc2)c(C)n1-c1ccc(OCc2ccc(F)cc2)cc1 [MLS000112167] | > 3.67 | 
76 | Cc1cc(C=Nn2cnnc2)c(C)n1-c1ccc(OCc2ccccc2F)cc1 [MLS000112180] | > 3.67 | 
